In US9963441B2, “Histone demethylase inhibitors” (CELGENE QUANTICEL RESEARCH, INC., priority 2013, dated 2018):

Target: T1, JMJD2C (Homo sapiens, UniProt Q9H3R0)
T1 construct: purchased BPS Bioscience 50105
T1 sequence (Q9H3R0 2-372): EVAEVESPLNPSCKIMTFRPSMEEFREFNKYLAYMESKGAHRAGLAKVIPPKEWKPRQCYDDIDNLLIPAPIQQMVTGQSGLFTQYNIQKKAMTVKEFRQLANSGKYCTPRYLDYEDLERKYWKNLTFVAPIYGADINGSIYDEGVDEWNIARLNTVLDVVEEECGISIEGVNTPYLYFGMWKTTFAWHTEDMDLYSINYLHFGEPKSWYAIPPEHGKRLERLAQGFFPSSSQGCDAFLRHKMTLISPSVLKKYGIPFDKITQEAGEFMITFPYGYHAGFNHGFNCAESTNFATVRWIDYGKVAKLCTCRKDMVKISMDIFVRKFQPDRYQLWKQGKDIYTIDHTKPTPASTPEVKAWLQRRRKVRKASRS
Test: JMJD2C in vitro enzyme inhibition assay (TR-FRET)
Format: biochemical
Procedure: This assay determines the ability of a test compound to inhibit Jarid1A, Jarid1B, JMJD2C, and JMJD2A demethylase activity. […] Baculovirus expressed JMJD2C (GenBank Accession #BC143571, AA 2-372) was purchased from BPS Bioscience (Cat#50105).
The ability of test compounds to inhibit the activity of JMJD2C was determined in 384-well plate format under the following reaction conditions: 0.3 nM JMJD2C, 300 nM H3K9me3-biotin labeled peptide (Anaspec cat #64360), 2 μM alpha-ketoglutaric acid in assay buffer of 50 mM HEPES, pH7.3, 0.005% Brij35, 0.5 mM TCEP, 0.2 mg/ml BSA, 50 μM sodium L-ascorbate, and 2 μM ammonium iron(II) sulfate. Reaction product was determined quantitatively by TR-FRET after the addition of detection reagent Phycolink Streptavidin-allophycocyanin (Prozyme) and Europium-anti-di-methylated histone H3 lysine 9 (H3K9me2) antibody (PerkinElmer) in the presence of 5 mM EDTA in LANCE detection buffer (PerkinElmer) at a final concentration of 50 nM and 1 nM, respectively.
The assay reaction was initiated by the following: 2 μl of the mixture of 900 nM H3K9me3-biotin labeled peptide and 6 μM alpha-ketoglutaric acid with 2 μl of 11-point serial diluted inhibitor in 3% DMSO were added to each well of the plate, followed by the addition of 2 μl of 0.9 nM JMJD2C to initiate the reaction. […]

- IC50: 1 to 10 µM
Structure (SMILES): Cn1cnc(-c2cc(-c3nn[nH]n3)ccn2)c1-c1ccc(Cl)c(OCc2ccccc2)c1 [Example 161, 2-[5-(4-chloro-3-phenylmethoxyphenyl)-1-methylimidazol-4-yl]-4-(2H-tetrazol-5-yl)pyridine]
